Key:
[1] = test system: P. falciparum 3D7 trophozoites; assay: microbe, parasite or virus in culture; assay type: cell-based, Plasmodium falciparum
Description: P. falciparum strains 3D7, Dd2, NITD609-R^Dd2 clone #2, Dd2^attB, and Dd2^attB CAM I398F/P990R were cultured under shaking conditions as described elsewhere ([Allen and Kirk, 2010]). Cultures were synchronized 24 hr before experimentation using 5% w/v sorbitol ([Lambros and Vanderberg, 1979]). All experiments were conducted on mature trophozoite-stage parasites (36–40 hr postinvasion) functionally isolated from their host erythrocytes by permeabilization of the erythrocyte and parasitophorous vacuole membranes by brief exposure to saponin (0.05% w/v) as described previously ([Spillman et al., 2008]).
(§1) The [Na^+]i of saponin-isolated parasites was measured at 37°C using the Na^+-sensitive dye SBFI (Molecular Probes, Invitrogen) in conjunction with a PerkinElmer LS 50B Fluorescence Spectrometer fitted with a Dual Excitation Fast Filter. Saponin-isolated parasites were loaded with SBFI by suspension (at 1.40–1.80 × 10^8 cells/mL) for 20 min at 37°C in bicarbonate-free RPMI1640 supplemented with 20 mM D-glucose, 0.2 mM hypoxanthine, 25 mM HEPES, and 25 mg/L gentamycin sulfate (pH 7.10), to which SBFI-acetoxymethyl ester (5.5 μM) and Pluronic F-127 (0.01% w/v) were added. The dye-loaded cells were washed twice (12,000 × g, 0.5 min) in bicarbonate-free RPMI then incubated for a further 20 min at 37°C to allow for complete de-esterification of the dye before being resuspended at a final cell concentration of 1.5–2.5 × 10^7 cells/mL in standard saline. The dye-loaded cells were excited at 340 nm and 380 nm with fluorescence recorded at 490 nm. Calibration of the relationship between the 340/380 nm fluorescence ratio and [Na^+]i (see Figures S1A–S1C) was carried out as described previously ([Diarra et al., 2001]; [Harootunian et al., 1989]).
The initial Na^+ influx rate (at t = 0) is a × Δ[Na^+]i^max.
(§2) Dose-response curves were obtained using the expression y = y^min + y^max/(1 + [C/IC50]^b), where y is the parameter being measured (parasite proliferation, Na^+ influx, or ATPase activity), y^min is the minimum value of y, y^max is the maximum value of y, C is the concentration of the moiety that was varied in the experiment, IC50 is the concentration at which y was reduced to 50% of y^max, and b is a fitted constant.

P. falciparum Dd2 parent = assay: Parasite proliferation, [^3H]hypoxanthine incorporation, Dd2 parent; assay type: cell-based; conditions: Plasmodium falciparum, DD2, read-out: IC50 for inhibition of parasite proliferation by NITD246
Description: (§3) Parasite growth assays were performed in 96-well plates over 48 hr (commencing at the ring stage) using a standard [^3H]hypoxanthine incorporation assay ([Desjardins et al., 1979]).
as §2

[2] = test system: P. falciparum trophozoites; assay: Cytosolic [Ca^2+]i in fura-2-loaded saponin-isolated parasites; assay type: cell-based, Plasmodium falciparum; conditions: 50 nM; medium containing 1 μM Ca^2+
Description: [Ca^2+]i was measured with the Ca^2+-sensitive indicator fura-2 (Molecular Probes, Invitrogen) using a loading protocol identical to that described for SBFI. Calibration was performed as described previously ([Alleva and Kirk, 2001]).

P. falciparum parasites = assay: Parasite proliferation, [^3H]hypoxanthine incorporation assay, 48 hr; assay type: cell-based; conditions: Plasmodium falciparum; mean ± SEM, number of independent experiments in parentheses; read-out: IC50 for inhibition of parasite proliferation
Description: as §3, §2

[3] = test system: P. falciparum NITD609-R^Dd2 clone #2 (mutant PfATP4); assay: Disruption of [Na^+]i regulation, SBFI-loaded trophozoites, NITD609-R^Dd2 clone #2; assay type: cell-based; conditions: Plasmodium falciparum, from fitted curves, read-out: IC50 for disruption of Na^+ regulation by NITD246
Description: as §1, with “1989]). Several inhibitors used in this study caused inner filter effects ([Gu and Kenny, 2009]; [Srinivas and Mutharasan, 1987]); in these cases calibration curves were generated with the inhibitors present. […]” for “1989]).”

Q: What does the source list for `C[C@H]1Cc2c([nH]c3cc(F)c(F)cc23)[C@@]2(N1)C(=O)Nc1ccc(Cl)cc12` [NITD246]?
A: Effect on resting [Na^+]i ([1]; 50 nM, 3D7, standard saline): immediate rapid increase in [Na^+]i; IC50 ([1]; Plasmodium falciparum, concentration causing [Na^+]i to increase from resting value at half the maximal rate, from fitted curves, 3D7, standard saline, read-out: IC50 for disruption of Na^+ regulation): 2.1 ± 0.8 nM; Rate of increase of [Na^+]i at maximally effective concentrations ([1]; maximally effective concentration): 0.092 ± 0.007 mM/s; IC50 (P. falciparum Dd2 parent): 0.08 ± 0.01 nM; Effect on [Ca^2+]i [2]: no effect; IC50 (P. falciparum parasites): 0.12 ± 0.02 nM; IC50 [3]: 10.4 ± 8.4 nM
